Experimental data reported in US4743609A, “Indole derivatives having gastric and antisecretory and cytoprotective properties, and pharmaceutical preparations containing same” (Banyu Pharmaceutical Co., Ltd., priority 1985, dated 1988).
Like-named read-outs stand apart in the source and are kept apart here. Values belong to the compound of their own block, whether it stands above or below them.

How the values were obtained:
rabbit gastric glands = assay: Inhibitory effects on aminopyrine uptake into gastric glands; type: cell-based; conditions: Oryctolagus cuniculus, 0.5 h, 37° C., 30 minutes, untreated control = 100%; for activity at 100 µM: 10^-4 M test compound; for activity at 10 µM: 10^-5 M test compound; for activity at 1 µM: 10^-6 M test compound
Excerpt: The production of gastric acid in the gastric mucosa is known to be performed by the parietal cells which are one kind of the cells constituting the gastric glands. The extent of the gastric acid secretion by the parietal cells has been deduced to be proportional to the rate of aminopyrine uptake into the gastric glands. Accordingly, the investigation of aminopyrine uptake into the gastric glands has been generally used as the indirect method for measuring the gastric acid secretion. Therefore, suspension of the rabbit gastric glands was prepared according to the method of Berglindh et al (see "Acta Physiol. Scand." 97, 401-414 (1976)). […] After this incubation, the reaction mixture obtained was centrifuged so that the gastric glands were spun down and separated from the incubation mixture. The gastric glands so collected were liophylized and the dry weight of the glands was measured. […] The so determined value of the radio-activity was assumed as the concentration or level of the aminopyrine uptaken into the gastric glands. According to the report of Berglindh et al (see "Acta Physiol. […] The radio-activity of the supernatant of the incubation mixture was determined in the same manner as above by the liquid scintillation counter, and the so determined value of the radio-activity of the supernatant was assumed to be the concentration or level of the aminopyrine present in the extraglandular water with the assumption that the so determined concentration of the aminopyrine in the supernatant was a measure of showing the quantity of the aminopyrine remaining not uptaken into gastric glands. Rate of aminopyrine uptake into gastric glands was calculated according to the following equation: [formula] The above experiment was repeated without the test compound as the Control test (untreated with test compound), and the rate of aminopyrine uptake as determined for this control test (untreated) was assumed to be 100%. The value (% of Control) was taken as showing the inhibitory effects of the test compound on the acid secretion. As a comparative drug, omeprazole was tested in the same way as above.

gastric mucosa = assay: Preventing the gastric ulcer induced by ethanol-hydrochloric acid (gastric cytoprotection); type: in vivo, SD-strain rats; conditions: Rattus norvegicus, po, rats; 30 minutes before 0.2N hydrochloric acid-50% aqueous ethanol; read-out: ED50 effective for 50% inhibition to the formation of necrotic lesions
Method: Thus, according to the method of Robert et al (see "Gastroenterology" 77, 433-443 (1979)), SD-strain rats (male, weighing 200 to 220 g, 8 rats in each group) were deprived of food for 24 hours and deprived of water for 19 hours. The rats were then administered orally with a suspension of the test compound in aqueous 0.5% carboxymethylcellulose solution at a dosage of 6, 10 or 20 mg/kg of the test compound. […] One hour after the administration of the ethanolic hydrochloric acid, the rats were killed. Their stomacks were dissected out, and the lower part of the esophagus was nipped with a clip. Aqueous 1% formalin solution (12.0 ml) was poured into the stomacks from duodenum and then the duodenal part was nipped by a clip. The whole stomacks were immersed in aqueous 1% formalin solution for about 10 minutes for the fixation, the pyloric stomacks were opened along the greater curvature and then rinsed with water. The gastric mucosa was examined and the necrotic lesions or errosions as formed in the glandular stomack and in the pylorus were examined under anatomic microscope to determine the length (in mm) of the lesions. From the test results obtained by the above procedure, the ED50 value of the tested compound effective for 50% inhibition to the formation of necrotic lesions was evaluated. Omeprazole as the comparative drug was tested in the same manner as above.

gastric acid secretion = assay: Gastric acid antisecretory activity (tetragastrin-stimulated secretion); type: in vivo, Donryu-strain rats; conditions: for ED50: Rattus norvegicus, iv, anaesthetized rats, tetragastrin 5 μg/kg, read-out: ED50 effective for 50% inhibition of the gastric acid secretion
Method: The bilateral vagus nerves in the cervical region of the rats were surgically cut and cannulas were inserted into the pylorus and also into the esophagus, respectively, and tied in place according to the method of Ghosh and Schild (see "Brit. J. Pharmacol." 13, 54 (1958)). Aqueous 0.9% saline solution (pH 8.5) as warmed to 40° C. was passed through the […] cannula into the stomack at a rate of 1 ml/min. for the perfusion. The pH value of the effluent coming from the pyloral cannula was measured. At the stage when the pH value of said effluent became steady, 5 μg/kg of tetragastrin, a stimulant for the gastric acid secretion, was administered through a cannula which had been inserted into the cervical vein. After the administration of tetragastrin,the decreasing change of pH value in the effluent was measured at constant intervals of time. Subsequently, a solution of the test compound in methanol was intraveously administered to the rat, and 15 minutes later tetragastrin was again administered. From the test data of the pH measurements so obtained was evaluated the ED50 value of the tested compound effective for 50% inhibition of the gastric acid secretion.

H^+,K^+ -ATPase = molecular target: T1, H^+,K^+ -ATPase (Oryctolagus cuniculus, UniProt P27112); assay: Inhibitory effects on the enzymatic activity of H^+,K^+ -ATPase; type: biochemical, rabbit
T1 construct: The rabbit gastric glands were homogenized and the microsomal fractions were prepared; from tissue; host or cells: rabbit gastric glands, light membrane fraction between 30% and 40% sucrose
Method: The rabbit gastric glands were homogenized and the microsomal fractions were prepared by differential centrifugation of the resultant homogenate. The microsomal fractions were layered on a linear continuous sucrose gradient ranging from 20 to 55% (W/V) sucrose and centrifuged to obtain the light membrane fractions sedimenting between 30% sucrose and 40% sucrose. The light membrane fractions containing the H^+,K^+ -ATPase so obtained were used to estimate the inhibitory effects of the new compound of this invention or omeprazole on the enzymatic activity of H^+,K^+ -ATPase. Test compounds were pre-incubated with the reaction mixture containing the enzyme (20-50 μg as protein) for 30 minutes at 37° C. After this, the enzymatic activity of the reaction mixture was determined by incubating for 20 minutes at 37° C. with the following reactant mixture comprising 10 mM MgCl2, 10 mM ATP disodium salt and 400 mM Tris-HCl (pH 7.3) with or without 50 mM KCl.

[1] = pre-incubated 30 minutes at 37° C., pH 7.3, with or without 50 mM KCl, read-out: IC50 value required for 50% inhibition of the enzymatic activity

T1 sequence (P27112 whole entry): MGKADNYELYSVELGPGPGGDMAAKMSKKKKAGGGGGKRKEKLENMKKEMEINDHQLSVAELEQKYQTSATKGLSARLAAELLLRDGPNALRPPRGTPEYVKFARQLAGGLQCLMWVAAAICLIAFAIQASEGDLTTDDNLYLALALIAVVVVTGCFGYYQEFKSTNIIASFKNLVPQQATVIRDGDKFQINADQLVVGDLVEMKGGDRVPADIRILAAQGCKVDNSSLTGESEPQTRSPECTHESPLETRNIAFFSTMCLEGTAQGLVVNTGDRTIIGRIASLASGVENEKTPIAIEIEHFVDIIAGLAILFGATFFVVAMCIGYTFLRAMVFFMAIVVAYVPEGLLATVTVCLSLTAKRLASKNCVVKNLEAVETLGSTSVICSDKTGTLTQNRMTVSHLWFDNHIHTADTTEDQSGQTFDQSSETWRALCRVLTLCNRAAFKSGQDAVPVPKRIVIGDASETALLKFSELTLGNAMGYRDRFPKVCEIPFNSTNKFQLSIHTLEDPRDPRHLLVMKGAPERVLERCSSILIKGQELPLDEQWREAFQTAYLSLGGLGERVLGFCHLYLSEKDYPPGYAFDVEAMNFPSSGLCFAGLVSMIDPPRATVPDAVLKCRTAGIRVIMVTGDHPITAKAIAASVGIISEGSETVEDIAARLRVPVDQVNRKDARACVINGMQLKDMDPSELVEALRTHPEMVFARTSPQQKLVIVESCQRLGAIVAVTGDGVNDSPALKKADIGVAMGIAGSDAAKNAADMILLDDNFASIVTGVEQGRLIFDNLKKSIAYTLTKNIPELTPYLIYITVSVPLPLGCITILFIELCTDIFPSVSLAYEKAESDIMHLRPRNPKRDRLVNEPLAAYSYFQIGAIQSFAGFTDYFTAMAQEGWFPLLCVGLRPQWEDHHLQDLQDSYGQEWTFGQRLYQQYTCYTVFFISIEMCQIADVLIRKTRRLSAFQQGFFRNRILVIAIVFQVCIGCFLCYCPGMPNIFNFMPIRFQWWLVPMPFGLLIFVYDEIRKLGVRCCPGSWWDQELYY
T1 sequence (P18597 whole entry partner): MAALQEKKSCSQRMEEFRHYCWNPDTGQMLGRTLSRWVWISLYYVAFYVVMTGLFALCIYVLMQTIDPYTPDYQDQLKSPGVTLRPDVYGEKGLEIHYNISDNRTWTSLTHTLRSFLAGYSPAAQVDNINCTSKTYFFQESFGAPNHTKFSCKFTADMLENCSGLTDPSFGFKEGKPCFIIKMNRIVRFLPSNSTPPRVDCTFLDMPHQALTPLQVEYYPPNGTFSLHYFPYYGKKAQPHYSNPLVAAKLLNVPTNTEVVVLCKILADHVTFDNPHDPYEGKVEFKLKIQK

H^+,K^+ -ATPase inhibition (in words) (H^+,K^+ -ATPase): H^+,K^+ -ATPase inhibitors
IC50 (H^+,K^+ -ATPase; [1]): 50 µM
SMILES: Cc1cnc(CSc2cc3ccccc3[nH]2)cc1N1CCCCC1 [Example 1, 2-[(5-methyl-4-piperidino-2-pyridyl)methylthio]indole]
activity at 100 µM (rabbit gastric glands): 7%
activity at 10 µM (rabbit gastric glands): 14%
activity at 1 µM (rabbit gastric glands): 44%
ED50 (gastric mucosa): 11.5 mg/kg
ED50 (gastric acid secretion): 7.58 mg/kg
gastric acid antisecretory activity (in words) (gastric acid secretion; rat, in vivo): remarkedly milder than that of opeprazole

SMILES: CN(C)c1ccnc(CSc2c[nH]c3ccccc23)c1 [Example 2, 3-[(4-dimethylamino-2-pyridyl)methylthio]indole]
activity at 100 µM (rabbit gastric glands): 24%
activity at 10 µM (rabbit gastric glands): 72%
activity at 1 µM (rabbit gastric glands): 111%

SMILES: Cc1cnc(C[S+]([O-])c2cc3ccccc3[nH]2)cc1N1CCCCC1 (centres unmarked) [Example 3, 2-[(5-methyl-4-piperidino-2-pyridyl)methylsulfinyl]indole]
activity at 100 µM (rabbit gastric glands): 54%
activity at 10 µM (rabbit gastric glands): 64%
activity at 1 µM (rabbit gastric glands): 99%

SMILES: Cc1cnc(CSc2cc3ccccc3n2C)cc1N1CCCCC1 [Example 4, 1-methyl-2-[(5-methyl-4-piperidino-2-pyridyl)methylthio]indole]
activity at 100 µM (rabbit gastric glands): 7%
activity at 10 µM (rabbit gastric glands): 8%
activity at 1 µM (rabbit gastric glands): 50%

SMILES: Cc1ccc2[nH]c(SCc3cc(N4CCCCC4)c(C)cn3)cc2c1 [Example 5, 5-methyl-2-[(5-methyl-4-piperidino-2-pyridyl)methylthio]indole]
activity at 100 µM (rabbit gastric glands): 11%
activity at 10 µM (rabbit gastric glands): 18%
activity at 1 µM (rabbit gastric glands): 56%
ED50 (gastric mucosa): 8.59 mg/kg

SMILES: Cc1cnc(CSc2cc3cc(F)ccc3[nH]2)cc1N1CCCCC1 [Example 6, 5-fluoro-2-[(5-methyl-4-piperidino-2-pyridyl)methylthio]indole]
activity at 100 µM (rabbit gastric glands): 14%
activity at 10 µM (rabbit gastric glands): 76%
activity at 1 µM (rabbit gastric glands): 48%
ED50 (gastric mucosa): 12.7 mg/kg

SMILES: Cc1cnc(CSc2cc3cc(C(F)(F)F)ccc3[nH]2)cc1N1CCCCC1 [Example 7, 5-trifluoromethyl-2-[(5-methyl-4-piperidino-2-pyridyl)methylthio]indole]
activity at 100 µM (rabbit gastric glands): 14%
activity at 10 µM (rabbit gastric glands): 17%
activity at 1 µM (rabbit gastric glands): 55%
ED50 (gastric mucosa): 9.77 mg/kg

SMILES: CCOC(=O)c1ccc2[nH]c(SCc3cc(N4CCCCC4)c(C)cn3)cc2c1 [Example 9, 5-ethoxycarbonyl-2-[(5-methyl-4-piperidino-2-pyridyl)methylthio]indole]
activity at 100 µM (rabbit gastric glands): 15%
activity at 10 µM (rabbit gastric glands): 20%
activity at 1 µM (rabbit gastric glands): 61%

SMILES: Cc1c(N2CCCCC2)ccnc1CSc1cc2ccccc2[nH]1 [Example 10, 2-[(3-methyl-4-piperidino-2-pyridyl)methylthio]indole]
activity at 100 µM (rabbit gastric glands): 4%
activity at 10 µM (rabbit gastric glands): 19%
activity at 1 µM (rabbit gastric glands): 71%

SMILES: Cc1cnc(CSc2cc3ccccc3[nH]2)cc1N1CCOCC1 [Example 11, 2-[(5-methyl-4-morpholino-2-pyridyl)methylthio]indole]
activity at 100 µM (rabbit gastric glands): 3%
activity at 10 µM (rabbit gastric glands): 56%
activity at 1 µM (rabbit gastric glands): 106%

SMILES: Cc1cnc(CSc2cc3ccccc3[nH]2)cc1N1CCCC1 [Example 12, 2-[(5-methyl-4-pyrrolidino-2-pyridyl)methylthio]indole]
activity at 100 µM (rabbit gastric glands): 10%
activity at 10 µM (rabbit gastric glands): 11%
activity at 1 µM (rabbit gastric glands): 48%

H^+,K^+ -ATPase inhibition (in words) (H^+,K^+ -ATPase): H^+,K^+ -ATPase inhibitors
IC50 (H^+,K^+ -ATPase; [1]): 700 µM
SMILES: CN(C)c1ccnc(CSc2cc3ccccc3[nH]2)c1 [Example 13, 2-[(4-Dimethylamino-2-pyridyl)methylthio]indole]
activity at 100 µM (rabbit gastric glands): 3%
activity at 10 µM (rabbit gastric glands): 48%
activity at 1 µM (rabbit gastric glands): 118%
ED50 (gastric mucosa): 9.17 mg/kg

SMILES: COc1ccc2[nH]c(SCc3cc(N4CCCCC4)c(C)cn3)cc2c1 [Example 21, 5-methoxy-2-[(5-methyl-4-piperidino-2-pyridyl)methylthio]indole]
ED50 (gastric mucosa): 14.6 mg/kg

SMILES: c1ccc2[nH]c(SCc3cc(N4CCCCC4)ccn3)cc2c1 [Example 22, 2-[(4-piperidino-2-pyridyl)methylthio]indole]
ED50 (gastric mucosa): 8.13 mg/kg

SMILES: Clc1ccnc(CSc2c[nH]c3ccccc23)c1 [Example 37, 3-[(4-chloro-2-pyridyl)methylthio]indole]
activity at 100 µM (rabbit gastric glands): 95%
activity at 10 µM (rabbit gastric glands): 105%
activity at 1 µM (rabbit gastric glands): 114%

SMILES: CCOC(=O)c1ccnc(CSc2c[nH]c3ccccc23)c1 [Example 38, 3-[(4-ethoxycarbonyl-2-pyridyl)methylthio]indole]
activity at 100 µM (rabbit gastric glands): 141%
activity at 10 µM (rabbit gastric glands): 103%
activity at 1 µM (rabbit gastric glands): 120%

SMILES: Oc1ccnc(CSc2c[nH]c3ccccc23)c1 [Example 39, 3-[(4-hydroxy-2-pyridyl)methylthio]indole]
activity at 100 µM (rabbit gastric glands): 105%
activity at 10 µM (rabbit gastric glands): 109%
activity at 1 µM (rabbit gastric glands): 120%

SMILES: Cc1cnc(CSc2c[nH]c3ccccc23)cc1N1CCCCC1 [Example 40, 3-[(5-methyl-4-piperidino-2-pyridyl)methylthio]indole]
ED50 (gastric mucosa): 2.84 mg/kg

IC50 (H^+,K^+ -ATPase): 9.4 µM
SMILES: COc1ccc2nc([S+]([O-])Cc3ncc(C)c(OC)c3C)[nH]c2c1 (centres unmarked) [Omeprazole, 2-[(3,5-dimethyl-4-methoxy-2-pyridyl)methylsulfinyl]-5-methoxybenzimidazole, reference compound]
activity at 100 µM (rabbit gastric glands): 18%
activity at 10 µM (rabbit gastric glands): 25%
activity at 1 µM (rabbit gastric glands): 34%
ED50 (gastric mucosa): 34.1 mg/kg
ED50 (gastric acid secretion): 0.24 mg/kg
